Measurements published in patent US6337338B1, “Heteroaryl-aryl ureas as IGF-1 receptor antagonists” (Telik, Inc., priority 1998, dated 2002).

How the values were obtained:
MCF-7 cells = assay: Cell growth inhibition study by protein assay, MCF-7; assay type: cell-based; conditions: 1 nM IGF-1, 48 h, FIG. 1b
Description: 100,000 cells (MCF-7) were plated into 24 well dishes, and grown in complete Dulbecco's modified Eagle's medium (DMEM) supplemented with 10% fetal calf serum (FCS) for 24 h. Cells were washed twice in serum-free DMEM, then 0.5 ml DMEM supplemented with 0^5% FCS […] was added with or without a heteroaryl-aryl compound, compound 5, and in the presence or absence of 1 nM hormone (IGF-1 or insulin, respectively). After 48 h at 37° C., cells were washed twice with phosphate buffered saline (PBS) then solubilized in 0.03% sodium dodecyl sulfate (SDS). Protein was determined using the BCA Protein Assay reagent from Pierce Chemical with BSA serving as a standard.

MCF-10 cells = assay: Cell growth inhibition study by protein assay, MCF-10; assay type: cell-based; conditions: 1 nM IGF-I, FIG. 1a
Description: MFC-10 cells were plated as above in DMEM/Ham's F12 medium (DMEM/F12) supplemented with 5% horse serum, 8 ng/ml epidermal growth factor (EGF), 0.5 μg/ml hydrocortisone, 0.1 μg/mL cholera toxin. After 24 hr, cells were washed twice in serum free DMEM/F12, then 0.5 ml DMEM/12 with 0.5% horse serum added with or without test compound, and in the […] of 1 nM IGF-I.

[1] = target: T1, IGF-1R-cytoplasmic kinase domain (IGF-1R-CKD; amino acids 959-1367 of IGF-1R) (Homo sapiens, UniProt P08069); assay: IGF-1R substrate assay (KS2 phosphorylation); assay type: biochemical; conditions: compounds 50 μM; 50 μM ATP; KS2-biotin substrate
T1 construct: amino acids 959-1367 of IGF-1R
Description: Nunc Maxisorp plates were coated with 100 μL 10 μg/mL-streptavidin at […] The plates were washed in 20 mM Tris pH7.6, 150 mM NaCl, 0.05% Tween 20, 0.8 mM Na3VO4, and 0.04% Biocide between all steps of the assay. The plates were blocked in 200 μL 50 mM Hepes/150 mM NaCl/0.1% Triton-X 100 overnight at 4° C. or for 2 hr at 25-37° C.
Aliquots of the IGF-1R-cytoplasmic kinase domain (IGF-1R-CKD; amino acids 959-1367 of IGF-1R) were purified and stored at −80° C. until use. KS2 (GPWLEEEEEAYGWMDF; SEQ ID NO:1), gastrin (1-17) that is a substrate for many tyrosine kinases including the insulin receptor, was synthesized as a biotin conjugate (KS2-biotin) (Baldwin et al., Nature, 301:435-37 (1983)). The assay mixture consisted of 0.2 μg/mL IGF-1R-CKD (concentration adjusted for optimal response), 300-900 nM KS2-biotin (depending on optimal response), 2 mM […], 5 mM MgCl2 (4-10 mM […] can be substituted), compounds to be tested (50 μM) or their vehicle, and 50 μM ATP. The start of phosphorylation begins with the addition of ATP. Incubation was continued for 10-30 minutes, at which time, the reaction was stopped through the quenching the metals with 20 mM EDTA (final concentration).
The reaction was diluted 1:10 in buffer A (2 mM HEPES pH 7.6, 0.05% Triton X-100, 0.05% bovine serum albumin (BSA)) and 100 μL was captured onto washed, coated and blocked, streptavidin Nunc Maxisorp plate, overnight at 4° C. or 2 hr at 37° C. Anti-phosphotyrosine antibody (12.5 ng/well) conjugated to horseradish peroxidase (RC20:HRPO by Transduction Laboratories ) was diluted into 0.5X Buffer B (25 mM Hepes pH7.6, 75 mM NaCl, 0.025% Tween 20, 2 mM Na3VO4+1% BSA) and incubated for 1.5 to 2 hr at 25° C. The phosphorylated substrate was measured by developing the plate with 100 μL 3′, 3′, 5,5′ tetramethylbenzidine (TMB), and quantified using a plate reader.

MCF-7 or MCF-10 cells = assay: Cell proliferation assay (CellTiter 96, MTS); assay type: cell-based; conditions: 1 nM IGF-1, 48 h, FIG. 2
Description: 5000 cells (MCF-7 or MCF-10) were plated into 96 well plates and grown for 24 h as in Example 4, above. Cells were washed in serum free DMEM, then 100 μl media and 1 nM IGF-1 were added to wells in the presence of or absence of compound 5 (see Example 2) and hormone. After 48 h, viability was determined by CellTiter 96™ (Promega). This kit is a chromogenic bioassay procedure for the measurement of cell proliferation. Briefly, 20 μl (3-[4,5,dimethylthiazol-2-yl]-5-[3-carboxymethoxyphenyl]-2-[4-sulfophenyl]-2H-tetrazolium, inner salt (MTS) was added to each well and incubation was continued for 3-4 h. Viable cells reduced the MTS to formazan, which was then measured at 492 nm using an ELISA plate reader. Cell proliferation was calculated based on the increase in the number of viable cells.

T1 sequence (P08069 959-1367): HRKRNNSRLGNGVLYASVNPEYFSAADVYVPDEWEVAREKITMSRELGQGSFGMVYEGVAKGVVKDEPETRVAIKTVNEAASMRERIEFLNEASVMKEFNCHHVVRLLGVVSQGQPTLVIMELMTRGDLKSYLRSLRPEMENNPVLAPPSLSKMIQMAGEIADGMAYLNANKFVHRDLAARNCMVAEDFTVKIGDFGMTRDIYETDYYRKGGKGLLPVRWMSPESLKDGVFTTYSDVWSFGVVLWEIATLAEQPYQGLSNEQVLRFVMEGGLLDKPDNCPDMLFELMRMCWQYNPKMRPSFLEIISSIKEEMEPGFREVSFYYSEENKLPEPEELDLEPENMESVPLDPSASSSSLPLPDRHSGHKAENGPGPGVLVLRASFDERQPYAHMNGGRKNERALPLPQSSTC

Compound | inhibition at 50 µM [1] [%] | further results
COc1c(Cl)cccc1NC(=O)Nc1cc(C)nc2ccccc12 [Compound 5, N-(2-methoxy-3-chlorophenyl)-N′-(2-methyl-4-quinolinyl) urea] | 21 | IGF-1 stimulated cell growth (protein assay) (MCF-7 cells): inhibit IGF-1 stimulated cell growth; IGF-1 stimulated cell growth (protein assay) (MCF-10 cells): inhibit IGF-1 stimulated cell growth; IGF-1R stimulated cell proliferation (MCF-7 or MCF-10 cells): decrease in IGF-1R stimulated cell proliferation
CCc1ccc(NC(=O)Nc2cccc3cccnc23)cc1 [Compound 9, N-(4-ethylphenyl)-N′-(8-quinolinyl) urea] | 33 | 
COc1ccccc1NC(=O)Nc1nccs1 [Compound 13, N-(2-methoxyphenyl)-N′-(1,3-thiazol-2-yl) urea] | 20 | 
O=C(Nc1cc(Cl)cc(Cl)c1)Nc1nccs1 [Compound 14, N-(3,5-dichlorophenyl)-N′-(1,3-thiazol-2-yl) urea] | 17 | 
O=C(Nc1cccc(Cl)c1)Nc1cnc2ccccc2c1 [Compound 10, N-(3-chlorophenyl)-N′-(3-quinolinyl) urea] | 26 | 
COc1c(Cl)cccc1NC(=O)Nc1nccs1 [Compound 11, N-(2-methoxy-3-chlorophenyl)-N′-(1,3-thiazol-2-yl) urea] | 21 | 
COc1ccc(Cl)cc1NC(=O)Nc1cc(C)nc2ccccc12 [Compound 7, N-(2-methoxy-5-chlorophenyl)-N′-(2-methyl-4-quinolinyl) urea] | 23 | 
Cc1ccc(NC(=O)Nc2nccs2)cc1Cl [Compound 12, N-(3-chloro-4-methylphenyl)-N′-(1,3-thiazol-2-yl) urea] | 21 | 
Cc1ccc(NC(=O)Nc2cnc3ccccc3c2)cc1Cl [Compound 8, N-(3-chloro-4-methylphenyl)-N′-(3-quinolinyl) urea] | 65 | 
